Measured values reported in patent US20250381307A1, “RETRO-AAV AND USE IN TREATING NEURODEGENERATIVE DISEASES” (priority 2023, published 2025).

What was measured:
rM3Ds [1] = biological target: T1, rM3Ds (Rattus norvegicus, UniProt P08483, A177S/A238G/A489L/DEL261-437/DEL441-478/E258S/I253V/I483M/INS256[…]/K178L/K182A/K255R/K484R/K486H/L173F/L482A/M480V/R171S/R176Q/R179M/S481M/T174R/T181R/T257A/Y148C); test: Rotation behavior and nigral c-Fos in mice after unilateral nigral AAV8R12-G88P7-rM3Ds-2A-EYFP and CNO; type: in vivo; details: for contraversive rotations (FIG. 7A): AAV8R12-G88P7-rM3Ds-2A-EYFP, n=8; for rotation behavior (FIG. 7C): control vector AAV8R12-G88P7-EYFP, n=5
T1 construct: rM3Ds; 2A-EYFP (C); host or cells: AAV8R12-transduced striatal D1-MSNs of mice and cynomolgus macaques (in vivo and acute slices)
Protocol: (§1) Mice were anesthetized with sodium pentobarbital (Nembutal; 80 mg/kg, i.p.), and then placed into a stereotaxic device (KOPF). Eye cream was applied on both corneas to avoid dehydration. The skull above the targeted areas was thinned with a dental drill and carefully removed. Injections were conducted with a 10 μL syringe connected to a 33-Gauge needle (Neuros; Hamilton), using a microsyringe pump (Legato 130, KD Scientific). A total volume of 200 nL virus was injected into the SNr at a speed of 20 nL/min. The coordinates for the SNr were 3.4 mm posterior, 1.3 mm lateral, 4.8 mm ventral to the bregma.
(§2) Mice that were used in the behavioral experiments were then implanted with guide cannulas (KOPF) unilaterally aiming at the dorsomedial striatum (0.5 mm anterior, 1.5 mm lateral, 3.5 mm ventral to the bregma). The cannulas were fixed to the skull with dental cement. Stainless steel obturators were inserted into the guide cannulas and were replaced every other day to maintain the patency until infusions were made. Mice were allowed to recover from the surgery for at least 3 weeks before further studies.
(§3) Mice were individually handled for 10-20 seconds per day for at least 5 days to habituate them to the experimenter. The open field test was conducted in a test apparatus (50 cm×50 cm×50 cm) with an HD digital camera (Sony) positioned above the arena. On day one, mice were habituated to the apparatus for 10 minutes. On day 2, mice were administrated saline (0.1 mL i.p. or 200 nL intracranially [i.e.] through the guide cannulas). On day 3, mice were administrated with Clozapine-N-oxide (CNO, Hello Bio, HB1807; 0.3 mg/kg i.p. or 200 nL at 100 μM i.e.). All behavioral tests were conducted 30 minutes after injection. During the test, mice were allowed to freely explore the apparatus for 10 minutes. The behavioral data were analyzed with ANY-maze software (Stoelting Co.).

rM3Ds [2] = biological target: T2, rM3Ds (Rattus norvegicus, UniProt P08483, A177S/A238G/A489L/DEL261-437/DEL441-478/E258S/I253V/I483M/INS256[…]/K178L/K182A/K255R/K484R/K486H/L173F/L482A/M480V/R171S/R176Q/R179M/S481M/T174R/T181R/T257A/Y148C); test: 6-OHDA parkinsonian mouse model: open field and rotarod; type: in vivo, C57/BL6 mice; parameters: rM3Ds; 2A-EYFP (C); host or cells: AAV8R12-transduced striatal D1-MSNs of mice and cynomolgus macaques (in vivo and acute slices); details: AAV8R12-G88P7-rM3Ds-2A-EYFP, 6-OHDA mice
T2 sequence (P08483 with tags, fused parts or gaps Y148C/R171S/L173F/T174R/R176Q/A177S/K178L/R179M/T181R/K182A/A238G/I253V/K255R/INS256[…]/T257A/E258S/DEL261-437/DEL441-478/M480V/S481M/L482A/I483M/K484R/K486H/A489L): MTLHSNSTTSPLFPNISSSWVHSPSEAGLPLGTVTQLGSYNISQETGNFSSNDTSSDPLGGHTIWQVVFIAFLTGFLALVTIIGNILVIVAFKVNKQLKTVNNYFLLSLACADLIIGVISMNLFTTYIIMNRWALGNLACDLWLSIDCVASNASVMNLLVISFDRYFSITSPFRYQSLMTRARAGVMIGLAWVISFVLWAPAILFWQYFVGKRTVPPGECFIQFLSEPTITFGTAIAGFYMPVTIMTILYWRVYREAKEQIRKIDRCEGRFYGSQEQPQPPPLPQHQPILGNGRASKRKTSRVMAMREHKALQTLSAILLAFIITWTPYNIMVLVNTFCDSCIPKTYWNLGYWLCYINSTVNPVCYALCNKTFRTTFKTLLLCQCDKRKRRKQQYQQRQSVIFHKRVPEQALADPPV
Protocol: Rodent Parkinson's disease mice models were created through bilateral injection of 6-OHDA using the same methods as described in virus injections (Example 3). A total volume of 1 ul 6-OHDA (5 mg/ml, dissolved in sterile saline containing 0.02% ascorbic acid, Sigma) was injected into the striatum at a speed of 100 nL/min. The coordinates for striatum were 0.5 mm anterior, 1.5 mm lateral, 3.2 mm ventral to the bregma. A premedication of desipramine (25 mg/kg, Sigma) was administered to animals prior to injections of 6-OHDA, in order to increase the selectivity and efficacy of 6-OHDA-induced lesions. Mice were supplemented with DietGel (ClearH2O) for one-week post-surgery. All staining and behavioral experiments were performed at least 14 days following surgery, when the amount of dopamine depletion was maximal and stable.
Mice were individually handled for 10-20 seconds per day for at least 5 days to habituate them to the experimenter. The open field test was conducted in a test apparatus (50 cm×50 cm×50 cm) with an HD digital camera (Sony) positioned above the arena. On day one, mice were habituated to the apparatus for 10 minutes. […] The behavioral data were analyzed with ANY-maze software (Stoelting Co.).
Mice were individually handled as described in the open field test. […] Latency to fall for each trial was automatically recorded by the apparatus. […]

[3] = Locomotion test in naive macaques without viral injection; type: in vivo; details: naive macaques, n=3, not significant
hM3Dq = hM3Dq (Homo sapiens, UniProt P20309, A239G/Y149C); test: Rotation behavior and nigral c-Fos in mice after unilateral nigral AAV8R12-G88P3-HA-hM3Dq and CNO; type: in vivo, C57BL/6J mice; parameters: host or cells: AAV8R12-transduced neurons (striatal D1-MSNs, some SNr neurons) of mice and macaques; details: for rotation behavior (FIG. 6C): control vector AAV8R12-G88P3-EYFP, n=5
Chain of hM3Dq (P20309 whole entry Y149C/A239G): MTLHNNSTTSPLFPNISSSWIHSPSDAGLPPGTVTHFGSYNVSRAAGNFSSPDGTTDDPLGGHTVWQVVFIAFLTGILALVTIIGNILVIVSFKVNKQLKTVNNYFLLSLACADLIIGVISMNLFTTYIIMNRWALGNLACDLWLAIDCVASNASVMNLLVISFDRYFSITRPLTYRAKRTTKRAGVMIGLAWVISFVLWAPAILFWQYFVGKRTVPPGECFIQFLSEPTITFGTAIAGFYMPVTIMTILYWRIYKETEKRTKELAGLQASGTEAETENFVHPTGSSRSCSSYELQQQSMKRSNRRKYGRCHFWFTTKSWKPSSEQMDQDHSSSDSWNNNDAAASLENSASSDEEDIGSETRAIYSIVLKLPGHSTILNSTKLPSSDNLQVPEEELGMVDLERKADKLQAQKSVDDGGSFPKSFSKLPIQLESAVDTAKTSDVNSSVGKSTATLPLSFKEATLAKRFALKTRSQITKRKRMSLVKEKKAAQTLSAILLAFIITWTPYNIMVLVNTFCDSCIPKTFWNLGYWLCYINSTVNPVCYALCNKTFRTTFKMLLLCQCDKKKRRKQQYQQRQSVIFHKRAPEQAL
Protocol: as §1, §2, §3

C[N+]1([O-])CCN(C2=Nc3cc(Cl)ccc3Nc3ccccc32)CC1 [CNO, clozapine N-oxide]
rotations 12 months after viral infection (rM3Ds [1]; CNO i.p., 12 months after nigral AAV8R12-G88P7-rM3Ds-2A-EYFP): consistently elevated contraversive rotations
contraversive rotations (FIG. 7A) (rM3Ds [1]; CNO i.p., saline 45.95±4.972): 80.05±5.168
rotation behavior (FIG. 7C) (rM3Ds [1]; CNO i.p., saline 48.68±7.203): 46.88±7.497
contraversive rotations (FIG. 7A) (rM3Ds [1]; CNO intracranial, saline 58.31±4.742): 80.77±4.187
rotation behavior (FIG. 7C) (rM3Ds [1]; CNO intracranial, saline 41.11±12.73): 34.55±7.536
c-Fos+ cells in the SNr (rM3Ds [1]; CNO intraperitoneal, rM3Ds): didn't increase the number of c-Fos+ cells in the SNr
motor skill in rotarod test (rM3Ds [2]; CNO): partially rescued the motor skill deficit
spontaneous movement in an open field (rM3Ds [2]; systemic CNO): drastically reversed the dyskinesia-like phenotype of PD mice
contraversive and ipsiversive rotation (FIG. 11C) ([3]; saline 0.767±0.4296): 0.8384±0.4152
speed of contraversive rotations (FIG. 11G) ([3]; saline 39.07±5.889): 39.63±7.092
speed of ipsiversive rotations (FIG. 11H) ([3]; saline 41.49±3.96): 42.79±4.705
total distance (FIG. 11F) ([3]; saline 53.12±15.3): 59.48±18.65
time spending in the higher portion of the observing cages (FIG. 11D) ([3]; saline 55.73±2.64): 60.43±4.542
immobile time (FIG. 11E) ([3]; saline 149.9±21.61): 149.8±22.65
rotations (FIG. 6A; ipsiversive rotations induced) (hM3Dq; CNO i.p., AAV8R12-G88P3-HA-hM3Dq, n=8 mice, mean±SEM, saline 45.25±4.128): 87.84±4.666
rotation behavior (FIG. 6C) (hM3Dq; CNO i.p., saline 47.08±10.5): 44.72±10.89
rotations (FIG. 6A; contraversive rotations induced) (hM3Dq; CNO intracranial into dorsomedial striatum, AAV8R12-G88P3-HA-hM3Dq, n=8, saline 49.63±5.879): 15.08±3.435
nigral c-Fos+ cells (hM3Dq; CNO intracranial, hM3Dq): No significant changes in the number of nigral c-Fos+ cells
rotation behavior (FIG. 6C) (hM3Dq; CNO intracranial, saline 54.22±8.766): 61.39±5.774
c-Fos+ cells in the right SNr (hM3Dq; CNO intraperitoneal, hM3Dq): significant increase in c-Fos+ cells
